From patent publication US8268848B2, “Cyclopropane compound” (Eisai R&D Management Co., Ltd., priority 2010, dated 2012)
Like-named read-outs stand apart in the source and are kept apart here.

Columns and labels:
OX1 [1] = target: T1, OX1 (Homo sapiens, UniProt O43613); assay: Measurement of antagonism (PLAP assay), OX1; format: cell-based; parameters: expressed in transfected cells; host or cells: HEK-293 cells, expression vector pBabeCLIH
T1 sequence (O43613 1-425): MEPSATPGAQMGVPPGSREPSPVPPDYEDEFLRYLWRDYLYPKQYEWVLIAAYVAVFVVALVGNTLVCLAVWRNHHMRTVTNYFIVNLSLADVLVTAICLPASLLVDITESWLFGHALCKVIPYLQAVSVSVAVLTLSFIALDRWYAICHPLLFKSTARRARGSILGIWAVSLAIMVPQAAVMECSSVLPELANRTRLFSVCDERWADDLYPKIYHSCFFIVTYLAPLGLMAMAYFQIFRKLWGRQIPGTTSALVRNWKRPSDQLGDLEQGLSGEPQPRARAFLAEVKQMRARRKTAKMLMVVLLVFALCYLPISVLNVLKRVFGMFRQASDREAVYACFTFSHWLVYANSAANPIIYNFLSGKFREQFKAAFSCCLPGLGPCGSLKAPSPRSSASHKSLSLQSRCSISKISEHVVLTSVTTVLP
Experimental: (§1) 2. Measurement of Antagonism (PLAP Assay)
(§2) The antagonistic function of the compound of the present invention to prevent the activation of OX2 and OX1 by orexin-A (OX-A), which is a natural peptide agonist, was measured using a cell-based reporter assay. […] The cells were plated at a density of 10,000 cells/well onto a non-coated 96-well plate in Dulbecco's modified Eagle medium (Sigma Cat No. D6046:10% v/v heat-inactivated fetal bovine serum was contained). The cells were cultured at 37° C. overnight, so that they could adhere to the plate. On the following day, cells were incubated with a compound of the present invention dissolved in Dulbecco's modified Eagle medium (Sigma Cat No. A8806:0.1% w/v bovine serum albumin was contained), and added to the cell plate to reach a final concentration of 0.1% dimethyl sulfoxide.
(§3) The thus obtained mixture was incubated at room temperature for 1 hour. Thereafter, human OX-A and forskolin were dissolved in the same medium as described above, which contained fetal bovine serum albumin, and the medium was then added to the cells, resulting in a final concentration of 300 nM forskolin. Subsequently, the cells were cultured at 37° C. for approximately 18 to 24 hours.

OX1 [2] = target: T1, OX1; assay: Measurement of orexin receptor-binding ability ([125I]-OX-A, cell membranes, OX1); parameters: expressed in transfected cells; host or cells: CHO cells (membrane preparation)
OX2 [3] = target: T2, OX2 (Homo sapiens, UniProt O43614); assay: Measurement of orexin receptor-binding ability ([125I]-OX-A, cell membranes, OX2); parameters: expressed in transfected cells; host or cells: CHO cells (membrane preparation); conditions: membranes of recombinant CHO cells expressing OX2, 0.2 nM [125I]-OX-A
T2 sequence (O43614 1-444): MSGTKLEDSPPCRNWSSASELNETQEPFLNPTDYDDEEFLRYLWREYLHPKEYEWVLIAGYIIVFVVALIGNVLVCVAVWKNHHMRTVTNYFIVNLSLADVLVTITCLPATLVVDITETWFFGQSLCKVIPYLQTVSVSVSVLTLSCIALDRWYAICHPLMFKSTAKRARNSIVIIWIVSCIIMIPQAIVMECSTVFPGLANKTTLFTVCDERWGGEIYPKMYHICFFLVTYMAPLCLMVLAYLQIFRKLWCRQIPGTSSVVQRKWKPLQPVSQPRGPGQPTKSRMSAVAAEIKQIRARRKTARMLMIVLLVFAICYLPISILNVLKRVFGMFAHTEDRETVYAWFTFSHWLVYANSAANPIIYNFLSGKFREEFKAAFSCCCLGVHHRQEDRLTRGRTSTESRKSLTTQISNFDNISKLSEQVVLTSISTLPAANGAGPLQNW

mice (C57BL/6NCrlCrLj) = assay: Sleep experiment (EEG/EMG) in mice; format: in vivo
Experimental: As a method for measuring the influence of the present compound on sleep time, electroencephalogram (EEG) and electromyogram (EMG) measurements were carried out in mice (C57BL/6NCrlCrLj).
In order to measure brain waves and muscle signals, EEG and EMG electrode implantation was performed on individual mice, and the mice were then housed in a state in which they could freely move and habituate in individual recording cages for 1 week or longer. Thereafter, amplified EEG and EMG signals were digitally recorded.
Mice received either oral administration of vehicle or test compound in vehicle, after which sleep/wake behavior of mice was recorded for 3 hours.
For sleep analysis, automatic analysis software from Kissei Comtec Co., Ltd. was used to analyze EEG frequency and EMG activity signals in detail and to determine sleep and wake states. Thereafter, accumulated sleeping time over 3 hours was calculated.
The effect of the compound to increase sleep time was evaluated as the difference between sleeping time on the vehicle-administration day and the sleep time on the subsequent drug-administration day.
The minimum effective dose (MED; mg/kg) was obtained from accumulated sleep time of mice with three hours after the administration.

OX2 [4] = target: T2, OX2; assay: Measurement of antagonism (PLAP assay), OX2; format: cell-based; parameters: expressed in transfected cells; host or cells: HEK-293 cells, expression vector pBabeCLIH
Experimental: as §1, §2, §3

[5] = HEK-293 cells expressing human OX1, 1 nM human OX-A, IC50 converted by Cheng-Prusoff equation, read-out: OX1 (Ki)
[6] = mice, oral administration, difference to vehicle day, 3 hours
[7] = HEK-293 cells expressing human OX2, 1 nM human OX-A, IC50 converted by Cheng-Prusoff equation, read-out: OX2 (Ki)
[8] = membranes of recombinant CHO cells expressing OX1, 0.2 nM [125I]-OX-A, read-out: OX1 (IC50)

| SMILES | Ki (OX1 [1]; [5]) | IC50 (OX1 [2]) | IC50 (OX2 [3]; OX2 (IC50) nM) | Sleep extended time 10 mg/kg (min/3 hrs) (mice (C57BL/6NCrlCrLj); [6]) | Ki (OX2 [4]; [7]) | IC50 (OX1 [2]; [8]) | IC50 (OX2 [3]; read-out: OX2 (IC50)) | other results |
| --- | --- | --- | --- | --- | --- | --- | --- | --- |
| COc1cccc([C@]2(COc3cnc(C)nc3C)C[C@H]2C(=O)Nc2ccc(F)cn2)c1 [Example 186, (1R,2S)-2-{[(2,4-dimethylpyrimidin-5-yl)oxy]methyl}-N-(5-fluoropyridin-2-yl)-2-(3-methoxyphenyl)cyclopropanecarboxamide] | 87 nM | 22 nM | 7 nM | 14.7 min/3 hrs | 3.4 nM |  |  |  |
| Cc1ncc(OC[C@@]2(c3cccc(F)c3)C[C@H]2C(=O)Nc2cc(C)c(F)cn2)c(C)n1 [Example 82, (1R,2S)-2-{[(2,4-dimethylpyrimidin-5-yl)oxy]methyl}-N-(5-fluoro-4-methylpyridin-2-yl)-2-(3-fluorophenyl)cyclopropanecarboxamide] | 0.96 nM | 2.4 nM | 3.7 nM | 33.5 min/3 hrs |  |  |  | Ki (OX2 [4]): 0.085 nM |
| Cc1ncc(OC[C@@]2(c3ccc(F)cc3)C[C@H]2C(=O)Nc2ccc(F)cn2)c(C)n1 [Example 100, (1R,2S)-2-{[(2,4-dimethylpyrimidin-5-yl)oxy]methyl}-2-(4-fluorophenyl)-N-(5-fluoropyridin-2-yl)cyclopropanecarboxamide] | 147 nM | 40 nM | 7.6 nM | 23.8 min/3 hrs | 9.4 nM |  |  |  |
| Cc1ncc(OC[C@@]2(c3ccccc3)C[C@H]2C(=O)Nc2ccncc2)c(C)n1 [Example 67] |  |  |  |  |  |  |  | Ki (OX1 [1]): > 667 nM; Ki (OX2 [4]): 57 nM |
| COc1cncc(NC(=O)[C@@H]2C[C@@]2(COc2cnc(C)nc2C)c2ccccc2)c1 [Example 61] | > 667 nM |  |  |  | 26 nM | 874 nM | 16 nM |  |
| Cc1ncc(OC[C@@]2(c3ccc(Cl)cc3)C[C@H]2C(=O)Nc2ccc(F)cn2)c(C)n1 [Example 161] | 32 nM | 50 nM | 12 nM | 10.0 min/3 hrs | 2.9 nM |  |  |  |
| COCc1nc(C)ncc1OC[C@@]1(c2cccc(F)c2)C[C@H]1C(=O)Nc1cc(C)c(F)cn1 [Example 199, (1R,2S)-N-(5-fluoro-4-methylpyridin-2-yl)-2-(3-fluorophenyl)-2-{[(4-methoxymethyl-2-methylpyrimidin-5-yl)oxy]methyl}cyclopropanecarboxamide] |  |  |  |  |  | 2 nM | 2 nM | Sleep extended time 10 mg/kg (min/3 hrs) (mice (C57BL/6NCrlCrLj); po, 3 h): 36.2 min/3 hrs |
| COCc1nc(C)ncc1OC[C@@]1(c2ccccc2)C[C@H]1C(=O)Nc1ccc(F)cn1 [Example 141, (1R,2S)-N-(5-fluoropyridin-2-yl)-2-{[(4-(methoxymethyl)-2-methylpyrimidin-5-yl)oxy]methyl}-2-phenylcyclopropanecarboxamide] |  |  |  |  |  | 9 nM | 1.3 nM | Sleep extended time 10 mg/kg (min/3 hrs) (mice (C57BL/6NCrlCrLj); po, 3 h): 28.7 min/3 hrs |
| Cc1ncc(OC[C@@]2(c3cccc(F)c3)C[C@H]2C(=O)Nc2ccc(F)cn2)c(C)n1 [Example 95, (1R,2S)-2-{[(2,4-dimethylpyrimidin-5-yl)oxy]methyl}-2-(3-fluorophenyl)-N-(5-fluoropyridin-2-yl)cyclopropanecarboxamide] |  | 13.4 nM |  | 39.8 min/3 hrs |  |  |  | Ki (OX1 [1]): 9.9 nM; minimum effective dose (MED) (mice (C57BL/6NCrlCrLj); mice, oral, doses 0.3 to 100 mg/kg, accumulated sleep time within three hours after administration): ≤ 1 mg/kg |
| COCc1nc(C)ncc1OC[C@@]1(c2ccccc2)C[C@H]1C(=O)Nc1ccc(Cl)cn1 [Example 139, (1R,2S)-N-(5-chloropyridin-2-yl)-2-{[(4-(methoxymethyl)-2-methylpyrimidin-5-yl)oxy]methyl}-2-phenylcyclopropanecarboxamide] | 113 nM |  |  |  | 1.7 nM | 22 nM | 3.3 nM |  |
| Cc1ncc(OC[C@@]2(c3ccccc3)C[C@H]2C(=O)Nc2ccccn2)c(C)n1 [Example 65] | > 667 nM |  | 81 nM |  |  | 1030 nM |  | Ki (OX2 [4]): 60 nM |
| COCc1nc(C)ncc1OC[C@@]1(c2cccc(F)c2)C[C@H]1C(=O)Nc1ccc(F)cn1 [Example 191, (1R,2S)-2-(3-fluorophenyl)-N-(5-fluoropyridin-2-yl)-2-[(4-methoxymethyl-2-methylpyrimidin-5-yl)oxymethyl]cyclopropanecarboxamide] |  | 1 nM | 1 nM | 41.8 min/3 hrs |  |  |  |  |
| Cc1ncc(OC[C@@]2(c3ccc(F)cc3)C[C@H]2C(=O)Nc2ccc(F)cc2)c(C)n1 [Example 105, (1R,2S)-N,2-bis(4-fluorophenyl)-2-{[(2,4-dimethylpyrimidin-5-yl)oxy]methyl}-N,2-bis(4-fluorophenyl)cyclopropanecarboxamide] |  | 195 nM | 18 nM | 14.3 min/3 hrs |  |  |  |  |
| Cc1ncc(OC[C@@]2(c3ccccc3)C[C@H]2C(=O)Nc2ccccc2)c(C)n1 [Example 64] | 133 nM |  |  |  | 6.3 nM | 74 nM | 15 nM |  |
| Cc1ncc(OC[C@@]2(c3cc(F)cc(F)c3)C[C@H]2C(=O)Nc2ccc(F)cc2)c(C)n1 [Example 130, (1R,2S)-2-(3,5-difluorophenyl)-2-{[(2,4-dimethylpyrimidin-5-yl)oxy]methyl}-N-(4-fluorophenyl)cyclopropanecarboxamide] |  |  |  |  |  | 22 nM | 4 nM | Sleep extended time 10 mg/kg (min/3 hrs) (mice (C57BL/6NCrlCrLj); po, 3 h): 24.2 min/3 hrs |
| Cc1ncc(OC[C@@]2(c3cccc(F)c3)C[C@H]2C(=O)Nc2ccc(C#N)cn2)c(C)n1 [Example 96, (1R,2S)-N-(5-cyanopyridin-2-yl)-2-{[(2,4-dimethylpyrimidin-5-yl)oxy]methyl}-2-(3-fluorophenyl)cyclopropanecarboxamide] |  | 32 nM | 5 nM | 12.1 min/3 hrs |  |  |  |  |
| Cc1ncc(OC[C@@]2(c3ccccc3)C[C@H]2C(=O)Nc2ccc(F)c(C#N)c2)c(C)n1 [Example 26, (1R,2S)-N-(3-cyano-4-fluorophenyl)-2-{[(2,4-dimethylpyrimidin-5-yl)oxy]methyl}-2-phenylcyclopropanecarboxamide] | 27 nM |  |  |  | 0.4 nM | 20 nM | 3.7 nM |  |
| Cc1ncc(OC[C@@]2(c3ccccc3)C[C@H]2C(=O)Nc2cccnc2)c(C)n1 [Example 66] | > 667 nM |  |  |  | 34 nM | 398 nM | 50 nM |  |
